The target of one data set is T1, CYP3A4 (Homo sapiens, UniProt P08684).
T1 construct: pre-incubated with human liver microsomes and NADPH; from tissue; host or cells: human liver microsomes
The data set is described as follows: Cytochrome P450 inhibition assay (midazolam hydroxylation). Type of data set: in vitro ADME. The conditions noted are these: human, human liver microsomes, probe midazolam (hydroxylation to 1′-hydroxymidazolam), 10 μM test compound, midazolam at approximately its Km. Put shortly:
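Human liver microsomes; CYP3A4 activity as midazolam 1′-hydroxylation with substrate near Km, with or without 10 μM test compound, read as percent inhibition. For time-dependent inhibition, parallel samples were preincubated 30 min with NADPH before substrate, and percent inhibition compared with non-preincubated samples.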
On the technique in general: Microsomes from liver hold many membrane-bound enzymes, among them those of drug oxidation.

A further data set concerns the target T2, OX1 (Homo sapiens, UniProt O43613).
T2 construct: expressed in transfected cells; host or cells: CHO (CHO-OX1, kept under selection antibiotic)
T2 sequence (O43613 1-425): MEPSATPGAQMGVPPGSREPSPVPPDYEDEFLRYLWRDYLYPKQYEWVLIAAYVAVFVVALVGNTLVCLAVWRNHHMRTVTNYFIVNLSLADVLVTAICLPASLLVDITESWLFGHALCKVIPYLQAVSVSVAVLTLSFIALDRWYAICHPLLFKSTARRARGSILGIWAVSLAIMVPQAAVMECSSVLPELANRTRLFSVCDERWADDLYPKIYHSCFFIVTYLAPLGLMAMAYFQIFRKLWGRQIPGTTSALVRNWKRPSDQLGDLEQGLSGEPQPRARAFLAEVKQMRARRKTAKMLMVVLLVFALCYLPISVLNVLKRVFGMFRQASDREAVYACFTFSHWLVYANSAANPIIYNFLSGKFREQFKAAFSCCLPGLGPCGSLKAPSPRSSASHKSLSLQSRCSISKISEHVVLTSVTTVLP
The data set is described as follows: Orexin receptor cell-based functional assay, [Ca2+]i by FLIPR, CHO-OX1 cells. To be noted: CHO-OX1 cells, [Ca2+]i by FLIPR, antagonist dose-range 0.1 nM-10 μM, EC90 of OXA; read-out: OX1. In a few lines: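 CHO cells expressing human OX1 or OX2 loaded with calcium dye plus 2.5 mM probenecid at 37° C (calcium4, 30 min, or calcium6, 2 h), then exposed to compounds (0.1 nM-10 μM) for 30 min. Intracellular Ca2+ measured on FLIPR; antagonist format.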

pIC50: −log10 of the molar value.

T1 sequence (P08684 whole entry): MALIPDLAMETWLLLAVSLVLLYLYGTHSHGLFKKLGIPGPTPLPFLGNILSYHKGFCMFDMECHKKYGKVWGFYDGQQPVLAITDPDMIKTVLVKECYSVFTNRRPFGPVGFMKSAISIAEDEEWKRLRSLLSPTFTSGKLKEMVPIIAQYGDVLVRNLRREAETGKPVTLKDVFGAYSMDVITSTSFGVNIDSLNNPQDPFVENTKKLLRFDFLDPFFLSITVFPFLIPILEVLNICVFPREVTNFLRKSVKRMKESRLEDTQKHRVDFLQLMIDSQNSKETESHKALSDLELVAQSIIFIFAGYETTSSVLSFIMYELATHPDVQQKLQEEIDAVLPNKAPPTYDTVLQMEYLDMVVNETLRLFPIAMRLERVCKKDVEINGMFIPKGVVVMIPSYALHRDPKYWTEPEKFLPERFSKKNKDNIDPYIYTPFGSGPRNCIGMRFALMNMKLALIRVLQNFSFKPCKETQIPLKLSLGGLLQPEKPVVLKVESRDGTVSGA

Usually inhibition stands for the share of the control response that was lost under treatment. Higher therefore signals a response far below the control. `Cc1ccc(-c2ccccn2)c(C(=O)N2CCC[C@@H](C)[C@H]2CNc2ncc(C(F)(F)F)cn2)c1` [Example A152, ((2S,3R)-3-Methyl-2-(((5-(trifluoromethyl)pyrimidin-2-yl)amino)methyl)piperidin-1-yl) (5-methyl-2-(pyridin-2-yl)phenyl)methanone]: at 10 µM the inhibition on CYP3A4 was 86%. In addition, the pIC50 on OX1 is 8.40.

`Cc1ccc(-c2ccccn2)c(C(=O)N2CCC[C@@H](C)[C@H]2CNc2ncc(C#N)cn2)c1` [Example A153, 2-((((2S,3R)-3-Methyl-1-(5-methyl-2-(pyridin-2-yl)benzoyl)piperidin-2-yl)methyl)amino)pyrimidine-5-carbonitrile] registered an inhibition at 10 µM against CYP3A4 of 66%. Besides, at OX1, the pIC50 is 6.85.

Compound `Cc1ccc(-n2cccn2)c(C(=O)N2CCC[C@@H](C)[C@H]2CNc2ccc(C)nn2)c1` [Example A154, ((2S,3R)-3-Methyl-2-(((6-methylpyridazin-3-yl)amino)methyl)piperidin-1-yl)(5-methyl-2-(1H-pyrazol-1-yl)phenyl)methanone] registered an inhibition at 10 µM against CYP3A4 of 43%. Besides, the pIC50 at OX1 was less than 6.00.

Turning to `Cc1ccc(-n2cccn2)c(C(=O)N2CCC[C@@H](C)[C@H]2CNc2ccc(C#N)nn2)c1` [Example A156, 6-((((2S,3R)-3-Methyl-1-(5-methyl-2-(1H-pyrazol-1-yl)benzoyl)piperidin-2-yl)methyl)amino)pyridazine-3-carbonitrile], the inhibition at 10 µM against CYP3A4 amounted to 53%. In addition, on OX1, the pIC50 is less than 6.00.

The compound `Cc1ccc(-n2cccn2)c(C(=O)N2CCC[C@@H](C)[C@H]2CNc2ccc(C(F)(F)F)nn2)c1` [Example A157, ((2S,3R)-3-mMethyl-2-(((6-(trifluoromethyl)pyridazin-3-yl)amino)methyl)piperidin-1-yl)(5-methyl-2-(1H-pyrazol-1-yl)phenyl)methanone] had an inhibition at 10 µM against CYP3A4 of 77%. Besides, the pIC50 at OX1 was 6.96.

Consider `Cc1ccc(-c2ccc(C(F)(F)F)cn2)c(C(=O)N2CCC[C@@H](C)[C@H]2CNc2ccc(Cl)cn2)c1` [Example A158, ((2S,3R)-2-(((5-Chloropyridin-2-yl)amino)methyl)-3-methylpiperidin-1-yl)(5-methyl-2-(5-(trifluoromethyl)pyridin-2-yl)phenyl)methanone], for which, on CYP3A4, 10 µM produced 83% inhibition. Besides, on OX1, the pIC50 was 6.66.

With `Cc1ccc(-c2ccc(F)cn2)c(C(=O)N2CCC[C@@H](C)[C@H]2CNc2ccc(Cl)cn2)c1` [Example A159, ((2S,3R)-2-(((5-Chloropyridin-2-yl)amino)methyl)-3-methylpiperidin-1-yl)(2-(5-fluoropyridin-2-yl)-5-methylphenyl)methanone], testing at 10 µM on CYP3A4 gave an inhibition of 88%. Moreover, the pIC50 on OX1 was 6.77.

The compound `C[C@@H]1CCCN(C(=O)c2cc(Cl)ccc2-n2nccn2)[C@@H]1CNc1ncc(C(F)(F)F)cn1` [Example A160, (5-Chloro-2-(2H-1,2,3-triazol-2-yl)phenyl)((2S,3R)-3-methyl-2-(((5-(trifluoromethyl)pyrimidin-2-yl)amino)methyl)piperidin-1-yl)methanone] showed an inhibition at 10 µM at CYP3A4 of 59%. For the same compound, at OX1, the pIC50 is 9.00.

The compound `C[C@@H]1CCCN(C(=O)c2cc(Cl)ccc2-n2nccn2)[C@@H]1CNc1ccc(Cl)cn1` [Example A161] yielded an inhibition at 10 µM at CYP3A4 of 68%. The pIC50 on OX1 was 7.89.

`C[C@@H]1CCCN(C(=O)c2cc(Cl)ccc2-n2nccn2)[C@@H]1CNc1ccc(C(F)(F)F)nn1` [Example A162, (5-Chloro-2-(2H-1,2,3-triazol-2-yl)phenyl)((2S,3R)-3-methyl-2-(((6-(trifluoromethyl)pyridazin-3-yl)amino)methyl)piperidin-1-yl)methanone] came in with an inhibition at 10 µM against CYP3A4 of 76%. Besides, the pIC50 at OX1 was 7.82.

For `Cc1ccc(-n2cccn2)c(C(=O)N2CCC[C@@H](C)[C@H]2CNc2ncc(C(F)(F)F)cn2)n1` [Example A166, ((2S,3R)-3-Methyl-2-(((5-(trifluoromethyl)pyrimidin-2-yl)amino)methyl)piperidin-1-yl)(6-methyl-3-(1H-pyrazol-1-yl)pyridin-2-yl)methanone], the inhibition at 10 µM against CYP3A4 was determined as 44%. Moreover, at OX1, the pIC50 is 8.10.

Compound `Cc1ccc(-c2ccccn2)c(C(=O)N2CCC[C@@H](C)[C@H]2CNc2ncc(C(F)(F)F)cn2)n1` [Example A167, ((2S,3R)-3-Methyl-2-(((5-(trifluoromethyl)pyrimidin-2-yl)amino)methyl)piperidin-1-yl)(6′-methyl-[2,3′-bipyridin]-2′-yl)methanone] gave an inhibition at 10 µM against CYP3A4 of 45%. At OX1, the pIC50 was 8.30.

`Cc1ccc(-n2cccn2)c(C(=O)N2CCC[C@@H](C)[C@H]2CNc2ccc(Cl)cn2)n1` [Example A168, ((2S,3R)-2-(((5-Chloropyridin-2-yl)amino)methyl)-3-methylpiperidin-1-yl)(6-methyl-3-(1H-pyrazol-1-yl)pyridin-2-yl)methanone] came in with an inhibition at 10 µM on CYP3A4 of 59%. Further, the pIC50 at OX1 is 8.00.

For the compound `Cc1ccc(-c2ccccn2)c(C(=O)N2CCC[C@@H](C)[C@H]2CNc2ccc(Cl)cn2)n1` [Example A169, ((2S,3R)-2-(((5-Chloropyridin-2-yl)amino)methyl)-3-methylpiperidin-1-yl)(6′-methyl-[2,3′-bipyridin]-2′-yl)methanone], at CYP3A4, testing at 10 µM gave an inhibition of 60%. The pIC50 on OX1 was 8.10.

`Cc1ccc(-n2nccn2)c(C(=O)N2CCC[C@@H](C)[C@H]2CNc2ncc(F)cn2)c1` [Example A171, ((2S,3R)-2-(((5-Fluoropyrimidin-2-yl)amino)methyl)-3-methylpiperidin-1-yl)(5-methyl-2-(2H-1,2,3-triazol-2-yl)phenyl)methanone] gave an inhibition at 10 µM at CYP3A4 of 36%. On OX1, the pIC50 is 6.43.

As for `Cc1ccc(-n2nccn2)c(C(=O)N2CCC[C@@H](C)[C@H]2CNc2ccc(C(F)(F)F)cn2)n1` [Example A174, ((2S,3R)-3-Methyl-2-(((5-(trifluoromethyl)pyridin-2-yl)amino)methyl)piperidin-1-yl)(6-methyl-3-(2H-1,2,3-triazol-2-yl)pyridin-2-yl)methanone], the inhibition at 10 µM against CYP3A4 is 51%. At OX1, the pIC50 was 9.00.

Compound `Cc1ccc(-n2nccn2)c(C(=O)N2CCC[C@@H](C)[C@H]2CNc2ncc(C(F)(F)F)cn2)n1` [Example A175, ((2S,3R)-3-Methyl-2-(((5-(trifluoromethyl)pyrimidin-2-yl)amino)methyl)piperidin-1-yl)(6-methyl-3-(2H-1,2,3-triazol-2-yl)pyridin-2-yl)methanone] registered an inhibition at 10 µM on CYP3A4 of 33%. The pIC50 on OX1 is 9.00.

As to `Cc1ccc(-n2nccn2)c(C(=O)N2CCC[C@@H](C)[C@H]2CNc2ccc(C(F)(F)F)nn2)n1` [Example A176, ((2S,3R)-3-Methyl-2-(((6-(trifluoromethyl)pyridazin-3-yl)amino)methyl)piperidin-1-yl)(6-methyl-3-(2H-1,2,3-triazol-2-yl)pyridin-2-yl)methanone], at CYP3A4, testing at 10 µM gave an inhibition of 37%. Besides, on OX1, the pIC50 is 8.22.

Take `Cc1ccc(-n2nccn2)c(C(=O)N2CCC[C@@H](C)[C@H]2CNc2ncc(Cl)cn2)n1` [Example A177, ((2S,3R)-2-(((5-Chloropyrimidin-2-yl)amino)methyl)-3-methylpiperidin-1-yl)(6-methyl-3-(2H-1,2,3-triazol-2-yl)pyridin-2-yl)methanone]: on CYP3A4, the inhibition at 10 µM is 39%. The pIC50 on OX1 was 8.30.

On CYP3A4, `Cc1ccc(-c2ccccn2)c(C(=O)N2CCC[C@@H](C)[C@H]2CNc2ncc(F)cn2)c1` [Example A179, ((2S,3R)-2-(((5-Fluoropyrimidin-2-yl)amino)methyl)-3-methylpiperidin-1-yl)(5-methyl-2-(pyridin-2-yl)phenyl)methanone] came in with an inhibition at 10 µM of 67%. Moreover, the pIC50 on OX1 was 6.31.

Turning to `Cc1ccc(-c2ncccn2)c(C(=O)N2CCC[C@@H](C)[C@H]2CNc2ncc(Cl)cc2F)c1` [Example A181, ((2S,3R)-2-(((5-Chloro-3-fluoropyridin-2-yl)amino)methyl)-3-methylpiperidin-1-yl)(5-methyl-2-(pyrimidin-2-yl)phenyl)methanone], the inhibition at 10 µM against CYP3A4 worked out at 76%. Further, the pIC50 at OX1 is 8.40.

Compound `Cc1ccc(-c2ncccn2)c(C(=O)N2CCC[C@@H](C)[C@H]2CNc2ncc(F)cc2F)c1` [Example A182, ((2S,3R)-2-(((3,5-Difluoropyridin-2-yl)amino)methyl)-3-methylpiperidin-1-yl)(5-methyl-2-(pyrimidin-2-yl)phenyl)methanone] displayed an inhibition at 10 µM on CYP3A4 of 65%. Further, the pIC50 on OX1 was 6.85.

Turning to `Cc1ccc(-c2ncccn2)c(C(=O)N2CCC[C@@H](C)[C@H]2CNc2ncc(C(F)(F)F)cn2)n1` [Example A184, ((2S,3R)-3-Methyl-2-(((5-(trifluoromethyl)pyrimidin-2-yl)amino)methyl)piperidin-1-yl)(6-methyl-3-(pyrimidin-2-yl)pyridin-2-yl)methanone], the inhibition at 10 µM on CYP3A4 was 34%. The pIC50 on OX1 was 8.30.

The values above are taken from US9440982B2 (Eolas Therapeutics, Inc., priority 2012, dated 2016).
